{
  "source": "patent US20260102324A1",
  "about": "“PERFUMING COMPOSITIONS COMPRISING A 2-(ALKYLSULFONYL)OCTAN-4-ONE” (FIRMENICH SA, priority 2022, published 2026)",
  "assay_type_in_all_cases": "physicochemical",
  "key": {"[1]": {"assay": "Determination of the solubilization temperature (T_sol), shallow heating ramp to 100% transparency", "procedure": "(§1) Solid 2-(dodecylsulfonyl)octan-4-one was mixed with different solvents and transferred to a 8 mL vial equipped with an overhead stirrer. The sample was placed in a Crystalline PV instrument (Technobis, The Netherlands). Heating and cooling steps were applied under mechanical stirring, and the samples were monitored by following transparency via a LED light beam that passes through the vial. Full (100%) transparency is attained when 2-(dodecylsulfonyl)octan-4-one is completely dissolved in the solvent. On the other hand, when the measured values of transparency are below 100% the dissolution process is still incomplete.\n(§2) A first heating step was carried out by quickly (+5° C./min) heating the sample above its solubility temperature to 60° C. After complete dissolution, a cooling ramp to 1° C. was applied (−2° C./min), i.e. below the solubility temperature of the sample, where the sample was kept stirring until 2-(dodecylsulfonyl)octan-4-one has crystallized. Subsequently a second heating step was carried out by applying a shallow heating ramp (+0.1° C./min) in order to dissolve the material under quasi-isothermal conditions. The transparency of the sample was monitored as a function of time during the heating ramp. Once the signal has attained 100% transparency, the dissolution process was complete and the respective temperature was taken as the solubilization temperature (T_sol).\nFollowing the methodology described above, 2-(dodecylsulfonyl)octan-4-one was mixed with various solvents/liquid carriers that are suitable for perfumery compositions or with perfumery raw materials at a concentration of 5 wt. % and the solubilization temperature has been determined. The solvents and perfumery raw materials used and the respective solubilization temperatures are depicted in Tables 1-3 below. […]"}, "[2]": {"assay": "Solubility at 25° C. from exponential fit of temperature-solubility curves", "conditions": "from extrapolation of temperature-solubility curves", "procedure": "The solubility of 2-(dodecylsulfonyl)octan-4-one at 25° C. in various solvents or perfumery raw materials has been determined based on the data presented in Table 9. For each solvent or perfumery raw material, the measured solubility as a function of temperature has been fitted to an exponential function. The solubility at 25° C. has been obtained by extrapolation or interpolation of this exponential function. The results/exponential curves are shown in the Figure (black triangle: DIPG, grey squares: IPM, open diamonds: Hedione®, black circles: gamma-nonalactone and Cetiol® Ultimate (80/20); the continuous lines represent exponential functions fit to the experimental data)."}, "[3]": {"assay": "Solubility measurements by light transparency (Crystalline PV instrument) on heating to 60° C. and cooling", "procedure": "as §1, §2\nFollowing the methodology described above, 2-(dodecylsulfonyl)octan-4-one was mixed with various solvents/liquid carriers that are suitable for perfumery compositions or with perfumery raw materials at a concentration of 5 wt. % and the solubilization temperature has been determined. The solvents and perfumery raw materials used and the respective solubilization temperatures are depicted in Tables 1-3 below."}, "[4]": {"conditions": "5 wt. % in Dimethylglutarate (DBE-5)"}, "[5]": {"conditions": "5 wt. % in Dipropylene glycol (DIPG)"}, "[6]": {"conditions": "5 wt. % in Fragrance composition F1"}, "[7]": {"conditions": "5 wt. % in Fragrance composition F2"}, "[8]": {"conditions": "5 wt. % in Fragrance composition F3"}, "[9]": {"conditions": "5 wt. % in Fragrance composition F4"}, "[10]": {"conditions": "5 wt. % in Fragrance composition F5"}, "[11]": {"conditions": "5 wt. % in Isopropyl myristate (IPM)"}, "[12]": {"conditions": "5 wt. % in gamma-Nonalactone/Cetiol ® Ultimate (80/20; w/w)"}, "[13]": {"conditions": "5 wt. % in gamma-Valerolactone/Isopropyl Myristate (IPM) (70/30 w/w)"}},
  "data": [
    {"smiles": "CCCCCCCCCCCCS(=O)(=O)C(C)CC(=O)CCCC", "note": "(centres unmarked) [2-(dodecylsulfonyl)octan-4-one]", "values": [
      {"measurement": "T_sol", "setting": "[1]; 5 wt. % in Cetiol ® Ultimate", "result": 45.4, "unit": "°C"},
      {"measurement": "T_sol", "setting": "[1]; [4]", "result": 27.3, "unit": "°C"},
      {"measurement": "T_sol", "setting": "[1]; [5]", "result": 44.6, "unit": "°C"},
      {"measurement": "T_sol", "setting": "[1]; 5 wt. % in Ethyl lactate", "result": 26.5, "unit": "°C"},
      {"measurement": "T_sol", "setting": "[1]; [6]", "result": 21.1, "unit": "°C"},
      {"measurement": "T_sol", "setting": "[1]; [7]", "result": 19.8, "unit": "°C"},
      {"measurement": "T_sol", "setting": "[1]; [8]", "result": 17.8, "unit": "°C"},
      {"measurement": "T_sol", "setting": "[1]; [9]", "result": 24.0, "unit": "°C"},
      {"measurement": "T_sol", "setting": "[1]; [10]", "result": 16.3, "unit": "°C"},
      {"measurement": "T_sol", "setting": "[1]; 5 wt. % in Hedione ®", "result": 21.0, "unit": "°C"},
      {"measurement": "T_sol", "setting": "[1]; [11]", "result": 33.5, "unit": "°C"},
      {"measurement": "T_sol", "setting": "[1]; 5 wt. % in Triacetine", "result": 41.1, "unit": "°C"},
      {"measurement": "T_sol", "setting": "[1]; 5 wt. % in Triethyl citrate", "result": 36.2, "unit": "°C"},
      {"measurement": "T_sol", "setting": "[1]; 5 wt. % in gamma-Decalactone", "result": 14.6, "unit": "°C"},
      {"measurement": "T_sol", "setting": "[1]; [12]", "result": 10.5, "unit": "°C"},
      {"measurement": "T_sol", "setting": "[1]; 5 wt. % in gamma-Undecalactone", "result": 15.3, "unit": "°C"},
      {"measurement": "T_sol", "setting": "[1]; 5 wt. % in gamma-Valerolactone", "result": 23.0, "unit": "°C"},
      {"measurement": "T_sol", "setting": "[1]; [13]", "result": 15.3, "unit": "°C"},
      {"measurement": "Solubility of 2-(dodecylsulfonyl)octan-4-one at 25° C.", "setting": "[2]; in gamma-Valerolactone/IPM (70:30 w/w)", "result": 11.3, "unit": "wt. %"},
      {"measurement": "Solubility of 2-(dodecylsulfonyl)octan-4-one at 25° C.", "setting": "[2]; in gamma-Valerolactone", "result": 5.5, "unit": "wt. %"},
      {"measurement": "Soluble after cooling to 25° C.", "setting": "[3]; 5 wt. % in Cetiol ® Ultimate", "result": "not capable of fully dissolving and no"},
      {"measurement": "Soluble at 60° C.", "setting": "[3]; 5 wt. % in Cetiol ® Ultimate", "result": "yes"},
      {"measurement": "Soluble after cooling to 25° C.", "setting": "[3]; [4]", "result": "not capable of fully dissolving and no"},
      {"measurement": "Soluble at 60° C.", "setting": "[3]; [4]", "result": "yes"},
      {"measurement": "Soluble after cooling to 25° C.", "setting": "[3]; [5]", "result": "not capable of fully dissolving and no"},
      {"measurement": "Soluble at 60° C.", "setting": "[3]; [5]", "result": "yes"},
      {"measurement": "Soluble after cooling to 25° C.", "setting": "[3]; 5 wt. % in Ethyl lactate", "result": "not capable of fully dissolving and no"},
      {"measurement": "Soluble at 60° C.", "setting": "[3]; 5 wt. % in Ethyl lactate", "result": "yes"},
      {"measurement": "Soluble after cooling to 25° C.", "setting": "[3]; [6]", "result": "yes"},
      {"measurement": "Soluble at 60° C.", "setting": "[3]; [6]", "result": "yes"},
      {"measurement": "Soluble after cooling to 25° C.", "setting": "[3]; [7]", "result": "yes"},
      {"measurement": "Soluble at 60° C.", "setting": "[3]; [7]", "result": "yes"},
      {"measurement": "Soluble after cooling to 25° C.", "setting": "[3]; [8]", "result": "yes"},
      {"measurement": "Soluble at 60° C.", "setting": "[3]; [8]", "result": "yes"},
      {"measurement": "Soluble after cooling to 25° C.", "setting": "[3]; [9]", "result": "yes"},
      {"measurement": "Soluble at 60° C.", "setting": "[3]; [9]", "result": "yes"},
      {"measurement": "Soluble after cooling to 25° C.", "setting": "[3]; [10]", "result": "yes"},
      {"measurement": "Soluble at 60° C.", "setting": "[3]; [10]", "result": "yes"},
      {"measurement": "Soluble after cooling to 25° C.", "setting": "[3]; 5 wt. % in Hedione ®", "result": "yes"},
      {"measurement": "Soluble at 60° C.", "setting": "[3]; 5 wt. % in Hedione ®", "result": "yes"},
      {"measurement": "Soluble after cooling to 25° C.", "setting": "[3]; [11]", "result": "not capable of fully dissolving and no"},
      {"measurement": "Soluble at 60° C.", "setting": "[3]; [11]", "result": "yes"},
      {"measurement": "Soluble after cooling to 25° C.", "setting": "[3]; 5 wt. % in Triacetine", "result": "not capable of fully dissolving and no"},
      {"measurement": "Soluble at 60° C.", "setting": "[3]; 5 wt. % in Triacetine", "result": "yes"},
      {"measurement": "Soluble after cooling to 25° C.", "setting": "[3]; 5 wt. % in Triethyl citrate", "result": "not capable of fully dissolving and no"},
      {"measurement": "Soluble at 60° C.", "setting": "[3]; 5 wt. % in Triethyl citrate", "result": "yes"},
      {"measurement": "Soluble after cooling to 25° C.", "setting": "[3]; 5 wt. % in gamma-Decalactone", "result": "yes"},
      {"measurement": "Soluble at 60° C.", "setting": "[3]; 5 wt. % in gamma-Decalactone", "result": "yes"},
      {"measurement": "Soluble after cooling to 25° C.", "setting": "[3]; [12]", "result": "yes"},
      {"measurement": "Soluble at 60° C.", "setting": "[3]; [12]", "result": "yes"},
      {"measurement": "Soluble after cooling to 25° C.", "setting": "[3]; 5 wt. % in gamma-Undecalactone", "result": "yes"},
      {"measurement": "Soluble at 60° C.", "setting": "[3]; 5 wt. % in gamma-Undecalactone", "result": "yes"},
      {"measurement": "Soluble after cooling to 25° C.", "setting": "[3]; 5 wt. % in gamma-Valerolactone", "result": "yes"},
      {"measurement": "Soluble at 60° C.", "setting": "[3]; 5 wt. % in gamma-Valerolactone", "result": "yes"},
      {"measurement": "Soluble after cooling to 25° C.", "setting": "[3]; [13]", "result": "yes"},
      {"measurement": "Soluble at 60° C.", "setting": "[3]; [13]", "result": "yes"}
    ]}
  ]
}
